For test [1], the system named is SPbeta AimR D360A. The experiment in a line: Thermal shift assay, mutant AimR D360A. It counts as binding, Bacillus subtilis SPbeta phage. The note with it: residual stabilization versus WT. The protocol:
(§1) The thermal shift assay was conducted in a 7500 Fast Real time PCR System (Applied Biosystems). Samples of 20 μL containing 5 × Sypro Orange (Sigma-Aldrich) and 20 μM of protein in a 20 mM Tris pH 8 and 250 mM NaCl buffer were loaded in 96-well PCR plates. To calculate the apparent Kd peptide concentrations from 0 to 2 μM were added to the mixture. Samples were heated from 20 to 85°C in steps of one degree. Fluorescent intensity was plotted versus temperature and integrated with GraphPad Prism software using a Boltzmann model to calculate melting temperatures.

The subject of test [2] is SPbeta AimR and operators presenting spacers from 12 bp to 35 bp. The note with it: pH 7.5. The method, then:
AimR binding to its operator and the inhibition induced by the arbitrium peptides were analyzed by native polyacrylamide and agarose gel electrophoresis. […] Double strand DNA primer probes were purchased from Macrogen (Table S1 and Figure 3A). Purified PCR product or purchased probes (0.4μM) and AimR (4μM) protein were mixed in EMSA buffer (50 mM HEPES pH 7.5, 5 mM MgCl2, 75 mM NaCl and 0.5 mM EDTA). The samples were incubated for 10 min at room temperature. 8% polyacrylamide gels were electrophoresed in Tris-Borate-EDTA (TBE) buffer at 100V for one hour, followed by loading of the samples. Electrophoresis was then performed in TBE buffer at 4°C for about 150 min at 100V. Agarose gels (0.8%–1.2%) were run in TAE buffer at room temperature for about 100 min at 80V. Gels were stained with RedSafe (Intron Biotechnology).

For test [3], the system named is SPbeta AimR N202A. Kind of test: Thermal shift assay, mutant AimR N202A. It counts as binding, Bacillus subtilis SPbeta phage. The note with it: residual stabilization versus WT. The method, then:
as §1

The subject of test [4] is SPbeta AimR bound to putative SPbeta operators. It counts as biochemical, Bacillus subtilis SPbeta phage. The note with it: pH 7.5. The text has this: (§2) Gels were stained with RedSafe (Intron Biotechnology).
In test [5] the test system is SPbeta AimR bound to its operator. In kind it is biochemical, Bacillus subtilis SPbeta phage.
From the text: as §2

Test [6] concerns AimR N202A bound to the AimR operator. The experiment in a line: EMSA, AimP-induced DNA dissociation of mutant AimR N202A. In kind it is biochemical, Bacillus subtilis SPbeta phage. To be noted: AimR 4 μM, probe 0.4 μM, HEPES pH 7.5, 10 min at room temperature.
From the text: as §2
In general terms: Mobility shift assays separate free from complexed probe on a gel.

For test [7], the target named is T1, SPbeta AimR (Bacillus phage SPbeta, UniProt O64094).
T1 construct: expresses the full-length AimR (residues 1-386) with an N-terminal 6xHistag; 6xHis tag followed by TEV protease site (N, cleaved yes); made in house; host or cells: E. coli BL21 (DE3) RIL
T1 sequence (O64094 whole entry, the tested form may be a part): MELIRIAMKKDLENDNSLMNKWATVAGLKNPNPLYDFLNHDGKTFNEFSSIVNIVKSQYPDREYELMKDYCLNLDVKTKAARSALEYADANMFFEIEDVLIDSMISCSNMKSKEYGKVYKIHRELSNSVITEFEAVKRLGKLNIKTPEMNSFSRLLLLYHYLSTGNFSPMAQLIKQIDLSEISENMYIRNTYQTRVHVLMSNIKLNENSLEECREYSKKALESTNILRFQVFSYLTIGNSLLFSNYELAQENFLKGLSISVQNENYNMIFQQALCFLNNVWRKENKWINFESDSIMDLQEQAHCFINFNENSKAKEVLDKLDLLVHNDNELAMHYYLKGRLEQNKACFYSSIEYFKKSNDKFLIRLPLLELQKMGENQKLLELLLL
Kind of test: SEC-MALS, effect of AimP on AimR oligomeric state. The note with it: 1 mM peptide in injected sample, 1 μM in running buffer; protein 5 mg/mL; 25 mM Tris pH 8, 250 mM NaCl. In kind it is biochemical, Bacillus subtilis SPbeta phage. The method, then: SEC-MALS experiments were performed using an AKTA pure system (GE Heralthcare) coupled to a Wyatt DAWN HELEOS-II MALS instrument and a Wyatt Optilab rEX differential refractometer (Wyatt). 50 μL of the protein samples were injected at a concentration of 5 mg/mL on a Superdex 200 HR 10/300 (GE Heralthcare) column equilibrated in 25 mM Tris pH 8, 250 mM NaCl. When the effect of the peptide in the oligomeric state was tested, 1 mM peptide was added to the injected sample and the running buffer was supplemented with peptide at a final concentration of 1 μM. The Astra 7.1.2 software from the manufacturer was used for acquisition and analysis of the data.
On the technique in general: In gel filtration, larger molecules generally elute earlier.

Test [8] deals with T1, SPbeta AimR. In kind it is binding, Bacillus subtilis SPbeta phage. The note with it: WT SPbeta AimR, 20 μM protein, 20 mM Tris pH 8, 250 mM NaCl. The method, then: as §1

Entries after “also recorded” stand apart in the source; their conditions may differ. Read-outs that look alike come from different tables or passages of the source.

As to “GMPRGA [regulatory arbitrium AimP peptide for SPbeta AimR, hexapeptide, 95% purity, ProteoGenix]”, in test [1], the “stabilization induced by AimP, AimR D360A” value is given as 1 °. Further, the “DNA binding of AimR-AimP complex” value in test [2] was “unable to bind DNA”. Moreover, the “stabilization induced by AimP, AimR N202A” value in test [3] was 1 °. Further, the “DNA release from putative SPbeta operators” value in test [4] is on record as “induces DNA release”. Moreover, in test [5] (pH 7.5), the “effect of peptide on AimR-DNA binding” value is recorded as “induced the release of AimR from DNA; also recorded: specifically disrupts the SPbeta AimR binding to its operator”. Moreover, the “effect of AimP on DNA dissociation of AimR^N202A” value in test [6] is listed as “did not induce DNA dissociation”. Further, the “effect of AimP on AimR dimer” value in test [7] was “did not induce SPbeta AimR dimer dissociation”. In addition, the “increment in the Tm (in words)” value in test [8] was “strong stabilization of SPbeta AimR”. Also, in test [8] (5 × Sypro Orange, 20 to 85°C in steps of one degree, one of three independent experiments), the “melting temperature (Tm) of AimR in presence of peptide” value was determined as 58.4 °C.
“SAIRGA [AimP peptide specific for phi3T phage, negative control for SPbeta AimR, reference compound]”: the “effect of peptide on AimR-DNA binding” value in test [5] (SPbeta AimR 4 μM, DNA probe 0.4 μM, 50 mM HEPES pH 7.5, 5 mM MgCl2, 75 mM NaCl, 0.5 mM EDTA, 10 min at room temperature) is “had no effect”. In addition, the “increment in the Tm (in words)” value in test [8] is “No increment in the Tm”.

Values taken from paper PMC6458997, “Deciphering the Molecular Mechanism Underpinning Phage Arbitrium Communication Systems” (Molecular Cell, 2019).
